Measurements: ChEMBL document CHEMBL5223171, “Synthesis and discovery of Baylis-Hillman adducts as potent and selective thioredoxin reductase inhibitors for cancer treatment” (Bioorg Med Chem, 2023)

Legend:
[1] = tested on: HepG2; test: Cytotoxicity against human HepG2 cells assessed as reduction in cell viability incubated for 72 hrs by MTT assay; format: functional, cell-based; conditions: HepG2, 72 h
[2] = tested on: A549; test: Cytotoxicity against human A549 cells assessed as reduction in cell viability incubated for 72 hrs by MTT assay; format: functional, cell-based; conditions: A549, 72 h
[3] = tested on: HeLa; test: Cytotoxicity against human HeLa cells assessed as reduction in cell viability incubated for 72 hrs by MTT assay; format: functional, cell-based
[4] = tested on: HepG2; test: Inhibition of cell migration in human HepG2 cells at 5 to 10 uM incubated upto 48 hrs by wound healing assay; format: functional, cell-based; conditions: dose 5-10 µM
[5] = tested on: HepG2; test: Induction of cell cycle arrest in human HepG2 cells assessed as accumulation at G2 phase at 10 uM incubated for 48 hrs by propidium iodide staining based flow cytometry (reference value: 14.85%); format: functional
[6] = molecular target: Thioredoxin reductase (Escherichia coli (strain K12)) (UniProt P0A9P4); test: Inhibition of Escherichia coil TrxR at 10 to 40 uM incubated for 2 hrs in presence of DTT and insulin; conditions: dose 10-40 µM
[7] = tested on: HepG2; test: Inhibition of TrxR in human HepG2 cells at 2.5 to 10 uM incubated for 48 hrs by NBL-SS probe based assay; format: cell-based; conditions: dose 2.5-10 µM
[8] = tested on: HepG2; test: Induction of cell cycle arrest in human HepG2 cells assessed as accumulation at S phase at 10 uM incubated for 48 hrs by propidium iodide staining based flow cytometry (reference value: 20.55%); format: functional
[9] = molecular target: Thioredoxin reductase (Escherichia coli (strain K12), UniProt P0A9P4); test: Inhibition of Escherichia coil TrxR incubated for 2 hrs in presence of DTT and insulin
[10] = tested on: HepG2; test: Inhibition of colony formation in human HepG2 cells assessed as reduction in colony number at 5 to 10 uM incubated for 5 days by crystal violet staining assay; format: functional, cell-based; conditions: dose 5-10 µM, time 5.0 day
[11] = tested on: HepG2; test: Induction of cell cycle arrest in human HepG2 cells assessed as accumulation at G1 phase at 10 uM incubated for 48 hrs by propidium iodide staining based flow cytometry (reference value: 64.6%); format: functional
[12] = tested on: HepG2; test: Inhibition of TrxR in human HepG2 cells at 2.5 to 10 uM incubated for 52 hrs by TRFS-green staining based fluorescence microscopic analysis; format: cell-based; conditions: dose 2.5-10 µM
[13] = tested on: HepG2; test: Inhibition of colony formation in human HepG2 cells at 5 uM incubated for 5 days by crystal violet staining assay; format: functional; conditions: HepG2, 120 h, time 5 day
[14] = organism: Homo sapiens; test: Inhibition of recombinant TrxR (unknown origin) using DTNB as substrate at 10 to 40 uM incubated for 2 hrs in presence of NADPH; conditions: dose 10-40 µM
[15] = Inhibition of recombinant TrxR (unknown origin) using DTNB as substrate incubated for 2 hrs in presence of NADPH; design: species or system Homo sapiens
[16] = tested on: HepG2; test: Induction of ROS generation in human HepG2 cells assessed as increase in intracellular ROS level at 2.5 to 10 uM incubated for 48 hrs by DCFH-DA staining based fluorescence microscopy; format: functional, cell-based; conditions: dose 2.5-10 µM

Sequence of Thioredoxin reductase (Escherichia coli (strain K12)) (P0A9P4 whole entry): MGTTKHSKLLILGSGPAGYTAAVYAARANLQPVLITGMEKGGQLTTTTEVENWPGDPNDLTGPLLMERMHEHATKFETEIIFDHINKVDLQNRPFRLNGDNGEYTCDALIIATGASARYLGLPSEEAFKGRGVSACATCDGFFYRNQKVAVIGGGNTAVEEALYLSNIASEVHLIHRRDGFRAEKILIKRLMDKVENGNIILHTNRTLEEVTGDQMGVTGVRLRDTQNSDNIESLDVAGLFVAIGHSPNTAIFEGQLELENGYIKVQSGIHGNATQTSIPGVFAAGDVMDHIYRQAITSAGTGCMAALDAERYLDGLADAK
Sequence of Thioredoxin reductase (P0A9P4 whole entry): as above

SMILES | IC50 [1] [µM] | IC50 [2] [µM] | IC50 [3] [µM] | other results
C=C(COC(=O)Nc1ccc(C)cc1)C(=O)NC(C(=O)NCC(=O)OCC)c1ccccc1 (configuration not stated) | 11.5 | > 20 | > 20 | 
C=C(COC(=O)Nc1ccc(C)cc1)C(=O)NC(C(=O)NCC(=O)OCC)c1ccc(Br)cc1 (configuration not stated) | 18.8 | > 20 | > 20 | 
C=C(COC(=O)Nc1ccc(C)cc1)C(=O)NC(C(=O)NC(C)(C)C)c1ccccc1 (configuration not stated) | > 20 | > 20 | > 20 | 
C=C(COC(=O)Nc1ccc(C)cc1)C(=O)NC(CC(C)C)C(=O)NCC(=O)OCC (configuration not stated) | 4.7 | > 20 | > 20 | inhibition [4]: Dose-Dependent Effect; Activity [5]: 10.02%; inhibition [6]: Dose-Dependent Effect; inhibition [7]: Dose-Dependent Effect; Activity [8]: 17.74%; IC50 [9]: 16.6 µM; inhibition [10]: Dose-Dependent Effect; Activity [11]: 72.24%; inhibition [12]: Dose-Dependent Effect; inhibition at 5 µM [13]: 67.1%; inhibition [14]: Dose-Dependent Effect; IC50 [15]: 4.18 µM; Activity [16]: Dose-Dependent Effect
C=C(COC(=O)Nc1ccc(C)cc1)C(=O)NC(C(=O)NCC(=O)OCC)c1ccc(Cl)cc1 (configuration not stated) | > 20 | > 20 | > 20 | 
C=C(COC(=O)Nc1ccc(C)cc1)C(=O)NC(C(=O)NC(C)(C)C)c1ccc(Cl)cc1 (configuration not stated) | 11.6 | > 20 | > 20 | 
C=C(COC(=O)Nc1ccc(C)cc1)C(=O)NC(C(=O)NCC(=O)OCC)c1ccc(Cl)cc1Cl (configuration not stated) | > 20 | > 20 | > 20 | 
CCC(C)SSc1ncc[nH]1 (configuration not stated) [PX-12] | 12 | > 20 | 9 | 
C=C(COC(=O)Nc1ccc(C)cc1)C(=O)NC(C(=O)NCC(=O)OCC)c1ccc(F)cc1 (configuration not stated) | 17.6 | > 20 | > 20 | 
C=C(COC(=O)Nc1ccc(C)cc1)C(=O)NC(C(=O)NC(C)(C)C)c1ccc(Br)cc1 (configuration not stated) | > 20 | > 20 | > 20 | 
C=C(COC(=O)Nc1ccc(C)cc1)C(=O)NC(C(=O)NC(C)(C)C)c1ccc(F)cc1 (configuration not stated) | > 20 | > 20 | > 20 | 
C=C(COC(=O)Nc1ccc(C)cc1)C(=O)NC(CC(C)C)C(=O)NC(C)(C)C (configuration not stated) | > 20 | > 20 | > 20 | 
C=C(COC(=O)Nc1ccc(C)cc1)C(=O)NC(C(=O)NC(C)(C)C)c1ccc(Cl)cc1Cl (configuration not stated) | > 20 | > 20 | > 20 | 
